The results in this text go back to ChEMBL document CHEMBL3600360, “Fluorescent photoaffinity probes for mitotic protein kinase Aurora A” (Bioorg Med Chem Lett, 2015).

By Kd is commonly meant the concentration at which binding is half-saturated.

Assay [1] concerns the target T1, Aurora kinase A (Homo sapiens) (UniProt O14965).
T1 sequence (whole entry): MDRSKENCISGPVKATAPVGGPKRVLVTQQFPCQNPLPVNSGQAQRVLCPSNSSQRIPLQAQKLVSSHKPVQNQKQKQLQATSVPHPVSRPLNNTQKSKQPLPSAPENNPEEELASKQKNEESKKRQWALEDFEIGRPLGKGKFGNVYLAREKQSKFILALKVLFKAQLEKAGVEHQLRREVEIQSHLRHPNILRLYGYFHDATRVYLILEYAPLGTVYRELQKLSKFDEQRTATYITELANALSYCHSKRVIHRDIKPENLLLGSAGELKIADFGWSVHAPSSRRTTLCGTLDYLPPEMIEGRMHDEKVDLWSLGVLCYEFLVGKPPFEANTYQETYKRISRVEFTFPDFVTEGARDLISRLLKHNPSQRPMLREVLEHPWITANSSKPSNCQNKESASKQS
Nature of the assay: Inhibition of purified recombinant full-length Aurora A (unknown origin) assessed as residual enzyme activity at 2 mM using kemptide analogue substrate and 5 mM ATP in presence of TPX2 (1 to 43 residues).

Assay [2] has as its target T1, Aurora kinase A (Homo sapiens). Nature of the assay: Binding affinity to purified recombinant full-length Aurora A (unknown origin) assessed as covalent irreversible complex formation at 2.4 uM irradiated for 15 mins with near-UV light by SDS-PAGE and Western blot method.
The target of another assay is T2, Aurora kinase A (Homo sapiens, UniProt O14965).
T2 sequence (O14965 whole entry): T1 sequence (whole entry)
The assay is described as follows: Binding affinity to purified recombinant full-length Aurora A (unknown origin) by fluorescence polarisation/anisotropy based equilibrium binding assay. (In general: Polarisation of emitted light reports the rotation of a fluorescent probe.)

Assay [3] has as its target T1, Aurora kinase A (Homo sapiens). Nature of the assay: Binding affinity to Aurora A in human HeLa cells assessed as covalent irreversible complex formation at 1 uM irradiated for 15 mins with near-UV light by SDS-PAGE and Western blot method. In kind it is cell-based. For orientation: In western blotting, separated proteins are transferred to a membrane and probed.
Assay [4] has the same target. The assay is described as follows: Binding affinity to purified recombinant full-length Aurora A (unknown origin) assessed as covalent irreversible complex formation at 1.2 uM irradiated for 30 mins with near-UV light by SDS-PAGE and Western blot method.
The target is the same in assay [5]. Nature of the assay: Binding affinity to Aurora A in human HeLa cells assessed as covalent irreversible complex formation at 1 uM irradiated for 15 mins with near-UV light in presence of Aurora A inhibitor MLN8237 by SDS-PAGE and Western blot method. In kind it is cell-based.
Assay [6] shares this target. Nature of the assay: Binding affinity to purified recombinant full-length Aurora A (unknown origin) assessed as covalent irreversible complex formation at 1.2 uM irradiated for 15 mins with near-UV light in presence of TPX2 by SDS-PAGE and Western blot method.
For assay [7] the target is unchanged. Nature of the assay: Binding affinity to 1 uM and >100 uM VX689-prre-treated purified recombinant full-length Aurora A (unknown origin) assessed as covalent irreversible complex formation at 1 uM irradiated for 15 mins with near-UV light by SDS-PAGE and Western blot method.
For assay [8] the target is unchanged. Nature of the assay: Binding affinity to purified recombinant full-length Aurora A (unknown origin) assessed as covalent irreversible complex formation at 2.4 uM irradiated for 15 mins with near-UV light in presence of TPX2 by SDS-PAGE and Western blot method.
The target is the same in assay [9]. The assay is described as follows: Binding affinity to purified recombinant full-length Aurora A (unknown origin) assessed as covalent irreversible complex formation at 4.8 uM irradiated for 15 mins with near-UV light using 200 nM Aurora A by SDS-PAGE and Western blot method.

Active and inactive are the calls of the source. No cut-off for these calls is given here.

As to `CCN1/C(=C/C=C/C2=[N+](CC)c3ccc(S(=O)(=O)O)cc3C2(C)C)C(C)(CCCC(=O)NCCCC[C@@H](NC(=O)[C@@H](CCCNC(=N)N)NC(=O)[C@@H](CCCNC(=N)N)NC(=O)[C@@H](CCCNC(=N)N)NC(=O)[C@@H](CCCNC(=N)N)NC(=O)[C@@H](CCCNC(=N)N)NC(=O)[C@@H](CCCNC(=N)N)NC(=O)[C@H](Cc2ccc(C(=O)c3ccccc3)cc2)NC(=O)[C@H](Cc2ccc(C(=O)c3ccccc3)cc2)NC(=O)CCCNC(=O)[C@]2(Cc3cccc(Nc4nccs4)n3)CC[C@@H](Oc3cccc(Cl)c3F)CC2)C(N)=O)c2cc(S(=O)(=O)O)ccc21` (some centres not stated), the figures for the Activity in assay [1] and in assay [2] were 100% and 8.1%, respectively. The Kd on Aurora kinase A is 9.1 nM.
As for `CCN1/C(=C/C=C/C2=[N+](CC)c3ccc(S(=O)(=O)O)cc3C2(C)C)C(C)(CCCC(=O)NCCCC[C@@H](NC(=O)[C@@H](CCCNC(=N)N)NC(=O)[C@@H](CCCNC(=N)N)NC(=O)[C@@H](CCCNC(=N)N)NC(=O)[C@@H](CCCNC(=N)N)NC(=O)[C@@H](CCCNC(=N)N)NC(=O)[C@@H](CCCNC(=N)N)NC(=O)[C@@H](Cc2ccc(C(=O)c3ccccc3)cc2)NC(=O)[C@@H](Cc2ccc(C(=O)c3ccccc3)cc2)NC(=O)CCCNC(=O)[C@]2(Cc3cccc(Nc4nccs4)n3)CC[C@@H](Oc3cccc(Cl)c3F)CC2)C(N)=O)c2cc(S(=O)(=O)O)ccc21` (some centres not stated), the Activity in [1] amounted to 110%; in assay [2], 6.9%. In addition, the Kd at Aurora kinase A was determined as 6.5 nM.
With `CN(C)c1ccc2c(-c3ccc(C(=O)NCCCC[C@H](NC(=O)[C@H](Cc4ccc(C(=O)c5ccccc5)cc4)NC(=O)[C@H](Cc4ccc(C(=O)c5ccccc5)cc4)NC(=O)CCCNC(=O)[C@]4(Cc5cccc(Nc6nccs6)n5)CC[C@@H](Oc5cccc(Cl)c5F)CC4)C(N)=O)cc3C(=O)O)c3ccc(=[N+](C)C)cc-3oc2c1`, the Activity was found to be 100% in assay [1] and 9% in assay [4]. The outcome in assay [3], in [5] and in [6] was Active.
For `N=C(N)NCCC[C@@H](NC(=O)[C@@H](CCCNC(=N)N)NC(=O)[C@@H](CCCNC(=N)N)NC(=O)[C@@H](CCCNC(=N)N)NC(=O)[C@@H](CCCNC(=N)N)NC(=O)[C@@H](CCCNC(=N)N)NC(=O)CCCCCNC(=O)[C@]1(Cc2cccc(Nc3nccs3)n2)CC[C@@H](Oc2cccc(Cl)c2F)CC1)C(N)=O`, the Activity in assay [1] amounted to 10%.
For `CCN1/C(=C/C=C/C2=[N+](CC)c3ccc(S(=O)(=O)O)cc3C2(C)C)C(C)(CCCC(=O)NCCCC[C@@H](NC(=O)[C@@H](CCCNC(=N)N)NC(=O)[C@@H](CCCNC(=N)N)NC(=O)[C@@H](CCCNC(=N)N)NC(=O)[C@@H](CCCNC(=N)N)NC(=O)[C@@H](CCCNC(=N)N)NC(=O)[C@@H](CCCNC(=N)N)NC(=O)[C@@H](Cc2ccc(N=[N+]=[N-])cc2)NC(=O)[C@@H](Cc2ccc(N=[N+]=[N-])cc2)NC(=O)CCNC(=O)[C@]2(Cc3cccc(Nc4nccs4)n3)CC[C@@H](Oc3cccc(Cl)c3F)CC2)C(N)=O)c2cc(S(=O)(=O)O)ccc21` (stereo in doubt), the outcome in assay [7] was inactive. In addition, the Activity was found to be 96% in [1] and 11% in assay [2]. The Kd at Aurora kinase A came out at 2.5 nM.
Consider `CCN1/C(=C/C=C/C2=[N+](CC)c3ccc(S(=O)(=O)O)cc3C2(C)C)C(C)(CCCC(=O)NCCCC[C@@H](NC(=O)[C@@H](CCCNC(=N)N)NC(=O)[C@@H](CCCNC(=N)N)NC(=O)[C@@H](CCCNC(=N)N)NC(=O)[C@@H](CCCNC(=N)N)NC(=O)[C@@H](CCCNC(=N)N)NC(=O)[C@@H](CCCNC(=N)N)NC(=O)[C@H](Cc2ccc(N=[N+]=[N-])cc2)NC(=O)[C@H](Cc2ccc(N=[N+]=[N-])cc2)NC(=O)CCNC(=O)[C@]2(Cc3cccc(Nc4nccs4)n3)CC[C@@H](Oc3cccc(Cl)c3F)CC2)C(N)=O)c2cc(S(=O)(=O)O)ccc21` (some centres not stated), for which the outcome in [7] and in assay [5] was inactive. The figures for the Activity in assay [1] and in [2] were 71% and 18%, respectively. Moreover, the outcome in assay [3] was Active. Besides, the Kd at Aurora kinase A was 5.7 nM.
Turning to `CN(C)c1ccc2c(-c3ccc(C(=O)NCCCC[C@H](NC(=O)[C@H](Cc4ccc(N=[N+]=[N-])cc4)NC(=O)[C@H](Cc4ccc(N=[N+]=[N-])cc4)NC(=O)CCCNC(=O)[C@]4(Cc5cccc(Nc6nccs6)n5)CC[C@@H](Oc5cccc(Cl)c5F)CC4)C(N)=O)cc3C(=O)O)c3ccc(=[N+](C)C)cc-3oc2c1`, the result in assay [7] and in assay [9] was inactive. Besides, the Activity in assay [1] amounted to 100%; in assay [2] it was 40%. The outcome in [8], in [3] and in assay [5] was Active. At Aurora kinase A, the Kd is 1.9 nM.
With `CCN1/C(=C/C=C/C2=[N+](CC)c3ccc(S(=O)(=O)O)cc3C2(C)C)C(C)(CCCC(=O)NCCCC[C@@H](NC(=O)[C@H](CCCNC(=N)N)NC(=O)[C@H](CCCNC(=N)N)NC(=O)[C@H](CCCNC(=N)N)NC(=O)[C@H](CCCNC(=N)N)NC(=O)[C@H](CCCNC(=N)N)NC(=O)[C@H](CCCNC(=N)N)NC(=O)[C@H](Cc2ccc(C(=O)c3ccccc3)cc2)NC(=O)[C@H](Cc2ccc(C(=O)c3ccccc3)cc2)NC(=O)CCCNC(=O)[C@]2(Cc3cccc(Nc4nccs4)n3)CC[C@@H](Oc3cccc(Cl)c3F)CC2)C(N)=O)c2cc(S(=O)(=O)O)ccc21` (some centres not stated), the values for the Activity in assay [1] and in assay [2] were 100% and 8.5%, respectively.
On to `O=C(O)[C@]1(Cc2cccc(Nc3nccs3)n2)CC[C@@H](Oc2cccc(Cl)c2F)CC1`, for which, in assay [1], the Activity amounted to 67%.
For the compound `CN(C)c1ccc2c(-c3ccc(C(=O)NCCCOCCOCCOCCCNC(=O)[C@@H](Cc4ccc(N=[N+]=[N-])cc4)NC(=O)CCNC(=O)[C@]4(Cc5cccc(Nc6nccs6)n5)CC[C@@H](Oc5cccc(Cl)c5F)CC4)cc3C(=O)O)c3ccc(=[N+](C)C)cc-3oc2c1`, the result in [7] was inactive. Further, the Activity in assay [1] came out at 73%; in [4], 20%. For the same compound, at Aurora kinase A, the Kd was 2.2 nM.
With `CCN1/C(=C/C=C/C2=[N+](CC)c3ccc(S(=O)(=O)O)cc3C2(C)C)C(C)(CCCC(=O)NCCCC[C@@H](NC(=O)[C@H](CCCNC(=N)N)NC(=O)[C@H](CCCNC(=N)N)NC(=O)[C@H](CCCNC(=N)N)NC(=O)[C@H](CCCNC(=N)N)NC(=O)[C@H](CCCNC(=N)N)NC(=O)[C@H](CCCNC(=N)N)NC(=O)[C@@H](Cc2ccc(N=[N+]=[N-])cc2)NC(=O)[C@@H](Cc2ccc(N=[N+]=[N-])cc2)NC(=O)CCNC(=O)[C@]2(Cc3cccc(Nc4nccs4)n3)CC[C@@H](Oc3cccc(Cl)c3F)CC2)C(N)=O)c2cc(S(=O)(=O)O)ccc21` (some centres not stated), the outcome in assay [7] and in [5] was inactive. For the same compound, the Activity in assay [1] turned out to be 74%; in [2], 15%. For the same compound, in assay [3], the outcome was Active. Further, the Kd on Aurora kinase A was 6.1 nM.
Consider `CN(C)c1ccc2c(-c3ccc(C(=O)NCCCC[C@H](NC(=O)[C@H](Cc4ccccc4)NC(=O)[C@H](Cc4ccccc4)NC(=O)CCCNC(=O)[C@]4(Cc5cccc(Nc6nccs6)n5)CC[C@@H](Oc5cccc(Cl)c5F)CC4)C(N)=O)cc3C(=O)O)c3ccc(=[N+](C)C)cc-3oc2c1`, for which the results for the Activity in assay [1] and in assay [4] were 110% and 1.5%, respectively. The Kd on Aurora kinase A worked out at 0.44 nM. For the same compound, the result in assay [6] was Active.
